Results from US7252822B2, “Methods for treating post-surgical pain by administering an anti-nerve growth factor antagonist” (Rinat Neuroscience Corp., priority 2002, dated 2007).

How the values were obtained:
Male Sprague Dawley rats = experiment: Post-surgical pain model (hind paw incision): resting pain, cumulative pain score; type: in vivo; conditions: rat
Method: We used a pain model that mimics post surgical pain to assess the efficacy of treatment with anti-NGF antibody 911 (a mouse monoclonal antibody; see Hongo, et al., Hybridoma 19:215-227 (2000). Each experiment involved 16 animals (n=8 per group). The anti-NGF antibody was injected intra peritoneal (i.p.) at various concentratiosn per experiment (35 or 7 milligrams per kilogram) 15 hours pre-incision. The control group received no antibody but was injected i.p. with a saline solution.
Animals. Male Sprague Dawley rats weighting between 220-240 grams were purchased from Harlan (San Diego) and acclimated to the animal facility for one week prior to surgery.
Surgery. The surgery was based on the procedure described by Brennan, et al. Pain 64:493-501 (1996). Animals were anesthetized with a 2% isoflurane in air mixture that was maintained during surgery via a nose cone. The plantar surface of the right hind paw was prepared with a povidone-iodine pad, and a 1-cm central longitudinal incision was made through skin and fascia, starting 0.5 cm from the edge of the heel and extending toward the toes. Measurements were made with a ruler with the foot held in a flexed position. The plantaris muscle was elevated using curved forceps and incised longitudinally. The muscle was incised through its full depth, between the origin and insertion. Bleeding was controlled throughout surgery by pressure applied through a gauze pad. The wound was closed with two mattress sutures (5-0 ethilon black monofilament). These sutures were knotted 5-6 times, with the first knot loosely tied. The wound site was swabbed with bacitracin solution. Animals were allowed to recover and rest in clean cages for two hours or more before behavioral testing began.
Evaluating resting pain. A cumulative pain score was used to assess pain related to weight bearing. Animals were placed on a plastic mesh (grid: 8 mm^2) in clear plastic cages that were elevated on a platform (h: 18″) allowing inspection of the underside of their paws. After a 20 minute acclimation period, weight bearing was assessed on a scale of 0 to 2. A score of 0 was given if the paw was blanched or pressed against the mesh, indicating full weight bearing. A score of 1 was given if the paw was favored with the skin just touching the mesh, with no blanching or indentation of the skin. A score of 2 was given if the paw was held completely off the mesh. Flinching the paw was considered a 2 if the rat was still at rest. […] The sum of 6 scores (0-12) obtained during ½ hour was used to assess pain in the incised foot. Frequency of scores of 2 was also calculated and used to assess the incidence of severe pain or total guarding of the paw by the animal. Each animal was tested 24 hours before surgery (baseline), and 2 h, 24 h, 48 h, and 72 h postoperatively. […]

Male Sprague-Dawley rats = experiment: Wound healing after dorsal skin incision: proportion of intact wounds; type: in vivo; conditions: rat, 5 mg/kg daily for five days intramuscularly, positive control; p<0.0005 vs saline or 911; FIG. 8
Description: Male Sprague-Dawley rats weighing 250-350 grams were purchased from Harlan (Wisconsin) were brought into the facility and acclimated for at least one week. Animals were anaesthetized with isoflurane and the dorsal surface (back) was shaved and cleaned with povidone iodine followed by an alcohol pad. A 2.5 cm incision through the skin was made on the midline between the scapulae. Bleeding was controlled with pressure with a gauze pad. The wound was closed with four single 4-0 ethilon sutures and the animals were allowed to recover. Animals were then divided into three groups: one group receiving a single does of mouse monoclonal anti-NGF antibody 911 at the time of surgery (1 mg/kg, i.p.); one group receiving Ketorolac (5 mg/kg daily for five days starting the day of surgery, intramuscularly (IMO) as a positive control; and a saline treated control group (negative control). Ketoralac is known to inhibit wound healing. Haws et al. (1996) Ann Plast Surg. 37(2):147-51; Gerstenfeld et al. (2003) J Orthop Res. 21(4):670-5.
The area of the incision was examined and photographed daily starting at day one post surgery. […] Incisions were scored as “intact” if the entire incision remained closed, and “failed” if some or all of the incision re-opened. Results were expressed as the proportion of intact wounds (i.e., the number of intact wounds divided by the total number of animals scored).

human NGF = target: T1, human NGF (human, UniProt P01138 122-239, limits assumed); experiment: binding affinity; method not given
T1 construct: also called hNGF; human nerve growth factor
T1 sequence (P01138 122-239 limits assumed): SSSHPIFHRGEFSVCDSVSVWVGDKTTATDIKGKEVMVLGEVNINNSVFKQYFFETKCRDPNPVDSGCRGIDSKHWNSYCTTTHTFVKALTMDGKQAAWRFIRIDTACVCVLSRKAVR

Molecule: COC(=O)[C@@]1(O)C[C@H]2O[C@]1(C)n1c3ccccc3c3c4c(c5c6ccccc6n2c5c31)C(=O)NC4 [K252a]
- cumulative resting pain score three hours after dosing (Male Sprague Dawley rats; in vivo, ip, 4 mg/kg): significantly reduced resting pain
- resting pain reduction compared with anti-NGF antibody in similar experiments (Male Sprague Dawley rats; in vivo, ip, 4 mg/kg): reduced resting pain to the same extent that treatment with anti-NGF antibody did

Molecule: O=C(c1ccccc1)c1ccc2n1CCC2C(=O)O (stereo not drawn) [ketorolac]
- wound healing (proportion of intact wounds) (Male Sprague-Dawley rats): significantly inhibited

B1: humanized anti-NGF antibody E3 (antibody, V domains shown)
VH: QVQLQESGPGLVKPSETLSLTCTVSGFSLIGYDLNWIRQPPGKGLEWIGIIWGDGTTDYNSAVKSRVTISKDTSKNQFSLKLSSVTAADTAVYYCARGGYWYATSYYFDYWGQGTLVTVS
VL: DIQMTQSPSSLSASVGDRVTITCRASQSISNNLNWYQQKPGKAPKLLIYYTSRFHSGVPSRFSGSGSGTDFTFTISSLQPEDIATYYCQQEHTLPYTFGQGTKLEIKR
- Kd (human NGF): ~0.07 nM

B2: E3: humanized mouse anti-NGF monoclonal antibody; human IgG2a constant region with A330P331 to S330S331, kappa light chain, variable regions SEQ ID NO:1 and 2 (antibody, V domains shown)
VH: B1 VH
VL: DIQMTQSPSSLSASVGDRVTITCRASQSISNNLNWYQQKPGKAPKLLIYYTSRFHSGVPSRFSGSGSGTDFTFTISSLQPEDIATYYCQQEHTLPYTFGQGTKLEIKRT
- resting pain (cumulative pain score) 24 hours after surgery (Male Sprague Dawley rats; 0.02 mg/kg to 1 mg/kg i.p. 15 hours pre-incision, p<0.05 vs saline, FIG. 4): significantly reduced resting pain
- resting pain (cumulative pain score) 24 hours after surgery (Male Sprague Dawley rats; 0.5 mg/kg i.v. two hours after incision, vs saline, FIG. 5): significantly (p<0.05) reduced resting pain
